# Assay results: patent US20150216168A1, “USE OF SUBSTITUTED 2-AMIDOBENZIMIDAZOLES, 2-AMIDOBENZOXAZOLES AND 2-AMIDOBENZOTHIAZOLES OR SALTS THEREOF AS ACTIVE SUBSTANCES AGAINST ABIOTIC PLANT STRESS” (BAYER CROPSCIENCE AG, priority 2012, published 2015)
# Legend:
# [1] = test system: Hordeum vulgare; assay: Drought stress test on greenhouse crop plants, spray application, barley; type: in vivo; conditions: 500 g/ha
# Procedure: (§1) Seeds of monocotyledonous and dicotyledonous crop plants were laid out in sandy loam in wood-fiber pots, covered with soil or sand and cultivated in a greenhouse under good growth conditions. The test plants were treated at the early leaf stage (BBCH10-BBCH13). To assure uniform water supply before commencement of stress, the potted plants were supplied with water by dam irrigation prior to substance application. The compounds according to the invention, formulated in the form of wettable powders (WP), were sprayed onto the green parts of the plants as an aqueous suspension at an equivalent water application rate of 600 I/ha with addition of 0.2% wetting agent (e.g. agrotin). Substance application was followed immediately by stress treatment of the plants. For this purpose, the pots were transferred into plastic inserts in order to prevent them from subsequently drying out too quickly. Drought stress was induced by gradual drying out under the following conditions:
# (§2) “Day”: 14 hours with illumination at 26° C. […]
# (§3) After the recovery phase had ended, the intensities of damage were analyzed in visual comparison to untreated, unstressed controls for the same age. The intensity of damage was first recorded as a percentage (100%=plants have died, 0%=like control plants). […]
# (§4) In each trial, 3 pots per crop and dosage were treated and evaluated; the resulting efficacies are thus averages. […]
# [2] = test system: Zea mays; assay: Drought stress test on greenhouse crop plants, spray application, corn; type: in vivo; conditions: 250 g/ha
# Procedure: as §1, §2, §3, §4
smiles,measurement,setting,value
"NC(=O)c1cccc2oc(-c3ccc(Cl)cc3Cl)nc12 [B1-18, 2-(2,4-Dichlorophenyl)-1,3-benzoxazole-4-carboxamide]","EF (HORVS): efficacy, percentage reduction in the intensity of damage",[1],>5%
same,"EF (ZEAMX): efficacy, percentage reduction in the intensity of damage",[2],>5%
